In US11958860B2, “Crystal form of compound, and preparation method therefor and use thereof” (JIANGSU KANION PHARMACEUTICAL CO., LTD., priority 2021, dated 2024):

Key:
Format in all cases: physicochemical
[1] = Transformation experiment between crystal forms (heating); conditions: heating temperature 120 °C, heating time 40 min
From the text: Four crystal forms, such as Form A, Form B, Form C, and Form D, are experienced for mutual transformation experiment. Experimental conditions and results are as follows: […]

[2] = Dynamic vapor sorption (DVS) hygroscopicity test; conditions: for water loss percentage / water absorption percentage: 25 °C
From the text: Dynamic vapor sorption (DVS) test/hygroscopicity test is to quickly determine the increase and loss of sample moisture caused by a flowing carrier gas with a set relative humidity (RH). The sample is placed on a high-sensitivity and high-stability digital micro-balancer in a self-suspension state, and then the sorption/desorption of water vapor is detected by determining the increase/decrease of material mass, so as to determine the hygroscopicity of the sample.
In the present invention, test parameters of the DVS are as follows: device model: SMS DVS Intrinsic; 0-95% RH; temperature: 25° C.
A dynamic vapor sorption (DVS) device is used to investigate the moisture sorption and desorption of samples at a temperature of 25° C. and a relative humidity of 0-95%, so as to determine the hygroscopic sorption properties of different crystal forms.

[3] = Percentage of solvent or water in crystal form
From the text: Thermo gravimetric analysis (TGA for short) is an analysis technique to determine the change of mass of substances with temperature under conditions of programmed temperature control. […] Thus, such thermo gravimetric analysis is suitable for detecting the loss of crystallization solvents or crystallization water molecules in crystalline substances or the process and magnitude of sublimation and decomposition of the sample, and can also effectively distinguish whether the substances contain the crystallization solvents or the crystallization water molecules.
In the present invention, test parameters of the TGA are as follows: device model: Netzsch TG 209F3; temperature range: 30-400° C.; scanning rate: 10 k/min; purge gas: 25 ml/min; and protective gas: 15 mL/min.

[4] = Comparison of crystal form stability (equilibrated suspension); conditions: conclusion from the crystal transformation results (Tables 2 and 3)
Procedure: 5 mg of each sample is taken and mixed with 1 ml of a solvent at 25° C. Experimental conditions and results are as follows: […]

COc1cc2c(cc1OC)CN1CCc3cc4c(cc3C1C2)OCO4 (single isomer, unassigned) [Form B, S-(−)-2,3-methylenedioxy-5,8,13,13a-tetrahydro-10,11-dimethoxy-6H-dibenzo[a, g]quinolizine]
Crystal form of product [1]: Form A | water loss percentage ([2]; RH 65%): percentage (0.2%) | water loss percentage ([2]; RH 80%): percentage (0.3%) | Percentage of solvent or water [3]: 10.8%

COc1cc2c(cc1OC)CN1CCc3cc4c(cc3C1C2)OCO4 (single isomer, unassigned) [Form C, S-(−)-2,3-methylenedioxy-5,8,13,13a-tetrahydro-10,11-dimethoxy-6H-dibenzo[a, g]quinolizine]
Crystal form of product [1]: Form A | water absorption percentage ([2]; RH 65%): percentage (0.5%) | water absorption percentage ([2]; RH 80%): percentage (1.2%) | Percentage of solvent or water [3]: 4.4%

COc1cc2c(cc1OC)CN1CCc3cc4c(cc3C1C2)OCO4 (single isomer, unassigned) [Form D, S-(−)-2,3-methylenedioxy-5,8,13,13a-tetrahydro-10,11-dimethoxy-6H-dibenzo[a, g]quinolizine]
Crystal form of product [1]: Form A | water absorption percentage ([2]; RH 65%): percentage (0.2%) | water absorption percentage ([2]; RH 80%): percentage (0.3%) | Percentage of solvent or water [3]: 0.0%

COc1cc2c(cc1OC)CN1CCc3cc4c(cc3[C@@H]1C2)OCO4 [Form A, S-(−)-2,3-methylenedioxy-5,8,13,13a-tetrahydro-10,11-dimethoxy-6H-dibenzo[a, g]quinolizine]
Crystal form of product [1]: Form A | relative stability of crystal forms [4]: most stable crystal form | water absorption percentage ([2]; RH 65%): percentage (0.1%) | water absorption percentage ([2]; RH 80%): percentage (0.2%) | change in hygroscopicity and weight (DVS) ([2]; relative humidity of 0-95%, FIG. 5): approximately 0.6% | Percentage of solvent or water [3]: 0.0%
